Laboratory results published in PubChem BioAssay AID2305 (GlaxoSmithKline (GSK), 2010).
“And” between values parts separate entries of the source, which are not always exact repeats. Identical values can stand only once.

Test system: P. falciparum 3D7 growth, pLDH absorbance
Test: blood-stage malaria parasite growth potency – strain 3D7, dose response (AID 2305)

Row | Compound | IC50
1 | COCCNC(=O)c1ccc(OC2CCN(CC(C)=Cc3ccccc3)CC2)c(Cl)c1 | 650 nM
2 | Cc1cc(NCCCCCCCCNc2cc(C)nc3ccccc23)c2ccccc2n1 | 990 nM
3 | CN1CCc2cc(Br)c(O)cc2C1Cc1ccccc1Cl (stereo not given) | 670 nM
4 | CC(C)(C)c1ccc(-c2nc3c(ccc4nc(N)nc(N)c43)[nH]2)cc1 | 160 nM
5 | COc1cc(C(=O)N2CC[C@@H](CCN3CCC4(CC3)CN(S(C)(=O)=O)c3ccccc34)C[C@H]2Cc2ccc(Cl)c(Cl)c2)cc(OC)c1OC | 840 nM
6 | COc1ccc(CNC2Cc3ccccc3C2)cc1-c1ccc(S(=O)(=O)NCc2ccccc2)s1 | 830 nM
7 | CCCCC#Cc1cnc2nc(N)[nH]c(=O)c2n1 | 650 nM
8 | O=C(Nc1ccc(-c2cccc(-c3nc4ccc(C(F)(F)F)cc4[nH]3)c2)cc1)c1ccncc1 | 660 nM
9 | CCCCC(=O)N(CCOC)Cc1ccc(-c2ccc(CNCCC)cn2)cc1 | 730 nM
10 | Cc1cccc(-c2nc(Nc3ccncc3)c3ccc([N+](=O)[O-])cc3n2)n1 | 830 nM
11 | O=C(Cc1ccccc1)NC(CCN1CCC(N(C2CC2)S(=O)(=O)c2cccc(C(F)(F)F)c2)CC1)c1ccc(Cl)c(Cl)c1 (stereo not given) | 1270 nM
12 | COC(=O)c1cc(C(O)CNC(C)CCCc2ccccc2)ccc1O (stereo not given) | 740 nM
13 | O=C(Nc1ccc(F)cc1)c1cnc(N2CCN(c3ccncc3)CC2)c(Cl)c1 | 740 nM
14 | CC[C@H](NC(=O)c1c(CC2CCN(CC(C)=O)CC2)c(-c2ccccc2)nc2ccccc12)c1ccccc1 | 380 nM
15 | COc1ccc(C2CC(c3cccs3)=NN2C(=O)c2ccco2)cc1OC (stereo not given) | 170 nM
16 | OCCN1CCN(C2Cc3ccc(F)cc3Sc3ccc(Cl)cc32)CC1 (stereo not given) | 880 nM
17 | CC1CCc2sc(-c3nnc(SC(C)C(=O)N4CCCC4)o3)cc2C1 (stereo not given) | 880 nM
18 | COc1ccc(C2C(C(=O)Nc3cc(Cl)c(OC)cc3OC)c3ccccc3C(=O)N2C)cc1 (stereo not given) | 820 nM
19 | O=C(NCC1CCN(Cc2ccc3c(c2)OCCO3)C1)c1cc(-c2cccc(C(F)(F)F)c2)cs1 (stereo not given) | 980 nM
20 | COc1cccc(C(=O)NCCc2cccc(Cl)c2)c1OCc1ccccc1 | 1260 nM
21 | COc1ccc2nccc([C@@H](O)CN3CCC(NC(=O)c4ccc(Cl)c(OC)c4)CC3)c2c1 | 790 nM
22 | CCNc1cc(C(=O)N[C@@H](Cc2ccccc2)[C@H](O)CNC2CCCC2)cc(N2CCCC2=O)c1 | 80 nM
23 | CN(C)c1ccc(-c2csc(C(=O)NC3CCCCN(CCC(C)(C)C)C3)c2)cc1 (stereo not given) | 1050 nM
24 | O=c1[nH]ccc2nc(N[C@@H]3CCCNC3)nc(Nc3ccc(S(=O)(=O)N4CCOCC4)cc3)c12 | 740 nM

Row | Compound | IC50
25 | COCCNCc1ccc(-c2ccc3c(Nc4ccc(Cl)cc4F)ccnc3c2)o1 | 210 nM
26 | CCn1c(-c2nc(-c3ccc4c(c3)OCO4)cnc2N)nc2cnccc21 | 430 nM
27 | CC(=O)Nc1ccc(S(=O)(=O)Nc2c(C)cc(Cc3cnc(N)nc3N)cc2C)cc1 | 1000 nM
28 | c1ccc2c(NCCCCCCCCCNc3ccnc4ccccc34)ccnc2c1 | 120 nM
29 | O=C(NCCCCCN1CCC(c2c[nH]c3ccccc23)CC1)Nc1ccc(Cl)cc1Cl | 720 nM
30 | COc1ccc2ncc(F)c(CCN3CC[C@@H](CNCc4cc5c(cn4)OCS5)C3)c2n1 | 1160 nM
31 | Fc1ccc2nc(-c3ccc(-c4cccc(CN5CCN(CCN6CCOCC6)CC5)c4)cc3)[nH]c2c1 | 140 nM
32 | COc1ccccc1CNC(=O)CCn1c(=O)[nH]c2ccsc2c1=O | 1040 nM
33 | COc1cccc(NC(=O)COc2ccc(C(=O)Nc3nc4ccccc4[nH]3)cc2)c1 | 970 nM
34 | O=C(/C=C/c1ccc(Cl)c(Cl)c1)NCCCCCN1CCC(CCNC(=O)/C=C/c2ccc(Cl)c(Cl)c2)CC1 | 560 nM
35 | CN(Cc1ccccc1)C1CCCN(c2cc(NC(=O)c3ccc(F)cc3)ccn2)C1 (stereo not given) | 990 nM
36 | Cc1c(NC(=O)COc2ccc(Cl)cc2C(=O)c2cc(F)cc(C(F)(F)F)c2)ccc2ncsc12 | 1020 nM
37 | O=C(C=Cc1ccc(-c2nc3ccccc3[nH]2)cc1)NC1CCN(Cc2ccccc2)CC1 | 740 nM
38 | C=C[C@]1(C)C[C@@H](OC(=O)CNC[C@@H](O)CN2C[C@H](c3ccnc4ccc(OC)nc34)OC2=O)[C@]2(C)[C@H](C)CC[C@]3(CCC(=O)[C@H]32)[C@@H](C)[C@@H]1O | 950 nM
39 | Cc1cccc2[nH]c(-c3cccc(-c4ccc(CNCc5ccccc5)cc4)c3)nc12 | 150 nM
40 | c1cc(-c2ccc(CNC3CCOCC3)cc2)cc(-c2nc3ccccc3[nH]2)c1 | 770 nM
41 | CN(C)CCOc1cc(NC(=O)Nc2cccc([N+](=O)[O-])c2)ccc1I | 740 nM
42 | CCC(C)NS(=O)(=O)c1ccc2nc(Nc3ccc(C)cc3)n(C3CCCCC3C)c2c1 (stereo not given) | 590 nM
43 | CCOC(=O)c1ccc2nc(-c3ccc(C(=O)NCc4ccc(C(C)(C)C)cc4)cc3)[nH]c2c1 | 850 nM
44 | O=C(Nc1ccc(C(F)(F)F)cc1)c1ccc(S(=O)(=O)NCC2CCCN(CC3CCCCC3)C2)cc1 (stereo not given) | 150 nM
45 | CN(C)CCOc1ccc(NC(=O)Nc2ccnc3c(Br)cccc23)cc1Cl | 840 nM
46 | CN1CCCN(Cc2ccc(-c3cccc(NC(=O)c4ccc(C#N)cc4)c3)cc2)CC1 | 740 nM
47 | CC(C)N1CCC(N(Cc2ccc(-c3ccc(Cl)cc3)cc2)C(=O)Cn2c(CCc3cccc(F)c3F)cc(=O)c3ccccc32)CC1 | 930 nM
48 | COc1ccc(OC)c(Cc2cnc3nc(N)[nH]c(=O)c3c2C)c1 | 360 nM

Row | Compound | IC50
49 | CC(=O)C1(c2ccccc2)CCN(CCC2(c3ccc(Cl)c(Cl)c3)CN(C(=O)Nc3cccc(C(F)(F)F)c3)CCO2)CC1 (stereo not given) | 1050 nM
50 | C=C[C@H]1CN2CC[C@H]1C[C@H]2[C@H](OS(=O)(=O)O)c1ccnc2ccccc12 | 620 nM
51 | CS(=O)(=O)CCNC(=O)c1ccc(-c2cc3c(Nc4ccc5c(cnn5Cc5ccccc5)c4)ncnc3cn2)o1 | 1000 nM
52 | CN(CCC(CCN1CCC(c2c[nH]c3ccccc23)CC1)c1ccccc1)C(=O)Nc1ccc(Cl)c(Cl)c1 (stereo not given) | 1190 nM
53 | O=C(Nc1ccc(OC2CCN(Cc3ccc(F)cc3)C2)c(Cl)c1)c1ccoc1 (stereo not given) | 940 nM
54 | C=CCOc1ccccc1CNCC(O)c1cc(Br)cs1 (stereo not given) | 330 nM
55 | CN1CCC(NCc2ccc(-c3ccc(S(=O)(=O)NCc4ccccc4)c(F)c3)cc2)CC1 | 610 nM
56 | O=C(Nc1ccc(Cl)c(Cl)c1)N[C@H]1CCN(CCCCCNC(=O)[C@@H]2C[C@H]2c2ccc(Cl)c(Cl)c2)C1 | 1030 nM
57 | COc1ccc2nccc([C@@H](O)CN3CCC(NCCOc4cccc(C(F)(F)F)c4)CC3)c2c1 | 160 nM
58 | Nc1nc(N)c2c(ccn2Cc2cc3c(cc2Cl)OCO3)n1 | 760 nM
59 | Cc1cc(NC(=O)c2ccc(S(=O)(=O)N(Cc3ccccc3)C(C)C)cc2)no1 | 850 nM
60 | Cc1ccc2[nH]c(-c3ccccc3N)cc2c1 | 920 nM
61 | COc1ccc(-c2ccc(NC(=O)c3ccc(C#N)cc3)cc2)cc1CN1CCCN(C)CC1 | 150 nM
62 | CC1CCN(C(=O)CSc2nc(-c3ccc(C(C)C)cc3)no2)CC1 | 1350 nM
63 | COc1ccc(CCNc2nc(N)c3cc(OC)c(OC)cc3n2)cc1 | 1120 nM
64 | C#CCOc1ccc(CC(C)NCC(O)c2cccc(C(F)(F)F)c2)cc1 (stereo not given) | 1190 nM and 1030 nM
65 | CC(C)CNc1nc(N)nc2ccc3c(ccn3CC(C)C)c12 | 650 nM
66 | CCN(CC)c1ccc2nc(N)nc(N)c2c1Cl | 30 nM
67 | CCCc1cc(Cc2cnc(N)nc2N)cc(CCC)c1OCCCCC(=O)OCC | 50 nM
68 | CN1CCN(c2ccc(-c3nc4c(C(N)=O)c(OCc5cc(Cl)cc(Cl)c5)ccc4[nH]3)cc2)CC1 | 660 nM
69 | CCCCN(CCCC)CC(O)c1cc(-c2ccc(Cl)cc2)nc2c(Cl)cc(Cl)cc12 (stereo not given) | 30 nM
70 | O=C(NCc1cccc(C(F)(F)F)c1)C(c1cc2ccccc2o1)N1CCN(C(c2ccccc2)c2ccccc2)CC1 (stereo not given) | 500 nM
